Measurements published in patent publication US20190209581A1, “DOSAGE REGIMEN FOR TREATMENT OF SOLID TUMORS” (Eli Lilly and Company, priority 2016, published 2019).

Columns and labels:
Assay type in all cases: in vivo
Sprague Dawley rats = assay: Toxicity study in rats, oral gavage, daily or 3 times/week for 2 weeks
Method: A study is carried out to assess the toxicity and toxicokinetics of 4,4,4-Trifluoro-N-[(1S)-2-[[(7S)-5-(2-hydroxyethyl)-6-oxo-7H-pyrido[2,3-d][3]benzazepin-7-yl]amino]-1-methyl-2-oxo-ethyl]butanamide in rats given oral gavage doses of 0, 1.3, or 4.3 mg/kg once daily for 2 weeks or 1, 3, 10, or 30 mg/kg 3 times/week for 2 weeks.
4,4,4-Trifluoro-N-[(1S)-2-[[(7S)-5-(2-hydroxyethyl)-6-oxo-7H-pyrido[2,3-d][3]benzazepin-7-yl]amino]-1-methyl-2-oxo-ethyl]butanamide is combined with a vehicle comprising 1% carboxymethylcellulose sodium, 0.25% polysorbate 80 and 0.05% Dow Corning® Antifoam 1510-US in purified water. Sprague Dawley CD®/IGS rats (crl:CD(SD)), International Genetic Standardization (IGS) 7-9 week old rats, 3/sex/group, Charles River Laboratories, Inc, are used for the study. Animals are fed ad libitum with 12 hours light, 12 hours dark cycle maintained in ventilated stainless-steel racks at an ambient temperature of 22.2+/[…] and relative humidity of 30% to 70%. The test compound is dosed according to Table 1. The test compound is administered by oral gavage in a volume of 10 mL/kg body weight. The duration of the study for all groups is 14 days.
Observations, at a minimum, for Groups 01, 06 and 07 are recorded daily before dosing, approximately one (1) hour postdose, and in the afternoon except afternoon observations are not recorded on weekends. Observations for Groups 02, 03, 04, and 05 are recorded beginning on Day 3. At a minimum, observations are recorded as described on dosing days. On non-dosing days, observations are recorded at approximately the same time as for groups receiving daily doses. Animals are weighed on Days 1, 3, 6, 10, and 14. Terminal body weights are collected at scheduled necropsy. Food consumption weights are recorded on Days 1, 3, 6, 10, and 14.

[1] = test system: SW480 human colorectal cell line; assay: Tumor growth inhibition, SW480 xenograft; conditions: SW480 in mice, oral 8 mg/kg, (Mon, Wed, Fri)x5; p <0.0001
Method: (§1) To evaluate in vivo efficacy and effect of 4,4,4-Trifluoro-N-[(1S)-2-[[(7S)-5-(2-hydroxyethyl)-6-oxo-7H-pyrido[2,3-d][3]benzazepin-7-yl]amino]-1-methyl-2-oxo-ethyl]butanamide on inhibition of Notch processing pharmacodynamics (PD), several cell lines- and patient-derived xenograft models are used. A2780 is a human ovarian cell line (Sigma-Aldrich, No. 93112519); SW480 is a human colorectal cell line (ATCC No. CCL-228); HCT 116 is a human colorectal cell line (ATCC No. CCL-247); U-87 MG is a human glioblastoma cell line (ATCC No. HTB-14); A375 is a human malignant melanoma cell line (ATCC No. CRL-1619); K-562 is a human chronic myelogenous leukemia (CML) cell line characterized by the presence of a fusion transcript comprised of the Bcr and Abl1 genes (ATCC No. CCL-243); Jurkat; HEL 92.1.7 is a human erythroleukemia cell line (ATCC No. TIB-180). […] Tumor growth and body weight are monitored over time to evaluate efficacy and signs of toxicity. Bidimensional measurements of tumors are performed twice a week and tumor volumes are calculated based on the following formula: (Tumor Volume)=[(L)×(W2)×(Π/6)] where L is mid-axis length and W is mid-axis width. […] The log volume data are analyzed with a two-way repeated measures analysis of variance by time and treatment using the MIXED™ procedures in SAS™ software (version 8.2). […]

[2] = test system: K-562 human chronic myelogenous leukemia (CML) cell line; assay: Tumor growth inhibition, K-562 xenograft; conditions: K-562 in mice, oral 8 mg/kg, (Mon, Wed, Fri)x4; p <0.05 to <0.001
Method: as §1

C[C@H](NC(=O)CCC(F)(F)F)C(=O)N[C@@H]1C(=O)N(CCO)c2ncccc2-c2ccccc21 [Compound 1, 4,4,4-trifluoro-N-[(1S)-2-[[(7S)-5-(2-hydroxyethyl)-6-oxo-7H-pyrido[2,3-d][3]benzazepin-7-yl]amino]-1-methyl-2-oxo-ethyl]butanamide]
Tolerability of once daily administration at same total weekly dose (Sprague Dawley rats; rat, in vivo): once daily administration is not tolerated
Compound related toxicities, kidney (Sprague Dawley rats; rat, in vivo, 10 mg/kg): minimal to slight renal tubular degeneration
Gastrointestinal toxicity, daily versus three times/week at same total weekly dose (Sprague Dawley rats; rats, 1.3 mg/kg daily or 3 mg/kg three times/week, 4.3 mg/kg daily or 10 mg/kg three times/week): more severe gastrointestinal toxicity with daily dosing compared to three times/week dosing
Survival (Sprague Dawley rats; rats, 2 of 3 female TK animals, daily doses of 1.3 mg/kg): euthanized on Day 10 due to poor condition
Survival (Sprague Dawley rats; rats, TK animals, daily doses of 4.3 mg/kg): found dead on Days 7, 8, or 10
Survival (Sprague Dawley rats; rats, all non-TK, male TK and 1 of 3 female TK animals, daily doses of 1.3 mg/kg): survived until the scheduled study termination
Survival (Sprague Dawley rats; rats, all non-toxicokinetic animals, 30 mg/kg 3 times/week): euthanized on Day 10 due to poor condition
Survival (Sprague Dawley rats; rats, animals given daily doses of 4.3 mg/kg (other than TK)): euthanized on Day 10 due to poor condition
Survival (Sprague Dawley rats; rats, non-TK animals given ≤10 mg/kg and TK animals given ≤3 mg/kg 3 times/week): survived until the scheduled study termination
Survival (Sprague Dawley rats; rats, two of three TK animals, 10 mg/kg 3 times/week): euthanized on Day 10 due to poor condition and the remaining TK animal was found dead prior to the 48 hr TK time point on Day 16
% TGI [1]: 61.00 (<0.0001) %
% TGI [2]: 54.96 (<0.05 to %
